Our source for the AUC values is patent publication US20190030049A1, “Celocoxib Binding Antibodies and Uses Thereof” (Marina Biotech, Inc., priority 2016, published 2019).

SMILES strings stand for the structures.

The series is described as follows: clinical. The following applies: human, plasma.

Regarding `Cc1ccc(-c2cc(C(F)(F)F)nn2-c2ccc(S(N)(=O)=O)cc2)cc1` [celecoxib, Celecoxib], the AUC runs as follows: (100 mg) 3400 ng·h/mL; (200 mg) 6800 ng·h/mL.
